Source: patent US11420922B2, “Hydroxylated tropolone inhibitors of nucleotidyl transferases in herpesvirus and Hepatitis B and uses therefor” (Saint Louis University, priority 2015, dated 2022)

Experiments:
HSV = test: Anti-HSV SAR summary, HSV type not separated; assay type: cell-based, herpes simplex virus; conditions: grouped by activity at 50, 5 and 0.5 μM
How it was run: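 Confluent monolayers were infected with HSV-1 or HSV-2 at MOI 0.1 in the presence of compound at 50 and 5 µM for 1 h at 37 °C. Compound was then re-added in DMEM/2% newborn calf serum for 23 h more. Yield was titred by plaque assay on Vero cells, with DMSO controls. EC50 values came from serial dilutions starting at 50 µM, fitted by non-linear regression.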

HBV = HBV replication assay in HepDES19 cells; assay type: cell-based; conditions: Hepatitis B virus; HepDES19 cells; read-out: EC50 (HBV assay)
How it was run: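 HepDES19 cells induced by tetracycline withdrawal, then compound applied 48 h later in duplicate (1% DMSO final) and refreshed daily for two more days. After micrococcal nuclease digestion, capsid-associated HBV DNA purified and plus- and minus-strand DNA quantified by TaqMan PCR.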

[1] = Mouse liver microsome assay; assay type: in vitro ADME; conditions: 1 μM in mouse liver microsomes; for ER: extraction ratio
Procedure: Microsomal incubations are run at a final P450 concentration of 0.25 μM. The microsomal mixture is composed of 0.1M potassium phosphate containing 3.3 mM MgCl and 1 μM compound (final concentration). The mixture is prewarmed for 5 min at 37° C. To initiate the reaction a 12 mM stock of NAPDH (1.2 mM, final concentration) is added to the warmed microsomal mixture and aliquots are removed at 0, 5, 10, 20 and 30 min. Samples are quenched with ice cold acetonitrile containing internal standard and either 1.8 mM EDTA or EGTA (final concentration). Samples are vortexed and spun down at 3200 rpm for 5 min. The supernant is transferred to 96-deep well plates and run on LC/MS/MS.

Vero cells = test: Qualitative (visual) Vero cell toxicity; assay type: cell-based; conditions: visual inspection in primary screen, key to t, T not given
Procedure: Qualitative assessments of cytotoxicity were done visually by inspecting the cells in the primary screening assays. For the quantitative assays, cells were plated in 96-well plates at 1.0×10^4 per well. The next day the compounds were added at 0.78 to 100 μM in a final concentration of 1% (v/v) DMSO, and the cells were incubated for 24 hours under conditions identical to those employed for the viral replication inhibition assays. Mitochondrial toxicity was measured by incubating the cells with 0.25 mg/mL thiazolyl blue tetrazolium bromide (MTT, Sigma Aldrich Chemical Co.), the cultures were incubated for 60 min, metabolites were solubilized in acidic isopropanol, and absorbance was read at 570 nm. CC50 values were calculated by non-linear curve fitting using GraphPad Prism.
Compound toxicity was measured both subjectively and quantitatively. Subjective assessments were done by visually inspecting the infected cells at the end of the 24 h infection window through a phase-contrast microscope.

HSV-2 [2] = test: Anti-HSV-2 replication assay in Vero cells, titers by plaque assay; assay type: cell-based, herpes simplex virus 2; conditions: Human alphaherpesvirus 2, Vero, 24 h; for log reduction at 5 µM: read-out: HSV-2 Log suppression 5 μM; for log reduction at 50 µM: read-out: HSV-2 Log suppression 50 μM
HSV-1 [3] = test: Anti-HSV-1 replication assay in Vero cells, titers by plaque assay; assay type: cell-based, herpes simplex virus 1; conditions: Human alphaherpesvirus 1, Vero, 24 h; for log reduction at 5 µM: read-out: HSV-1 Log suppression 5 μM; for log reduction at 50 µM: read-out: HSV-1 Log suppression 50 μM
How it was run: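 Vero monolayers infected with clinical HSV-1 or HSV-2 isolates at MOI 0.1 with compound present (50 and 5 μM final), 1 h at 37° C, then compound in DMEM for another 23 h. Yield titered by plaque assay on Vero cells; EC50 by nonlinear fit of serial dilutions starting at 50 μM, DMSO controls.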

HSV-1 [4] = conditions: 5 μM or less; cited from earlier work
HSV-2 [5] = conditions: 5 μM or less; cited from earlier work
HBV replication = test: Chou-Talalay combination of RNAseH inhibitors with Lamivudine against HBV replication; assay type: cell-based, Hepatitis B virus; conditions: CI <1.0 synergy, ~1.0 additive, >1.0 antagonism
Source text: Additive interactions are shown with the red line, synergistic interactions below the line, and antagonistic interactions are above the line.
Current nucleos(t)ide analog therapy for HBV has converted hepatitis type B from an implacably progressing illness to a controllable disease. However, patients are only very rarely cured, in part due to the incomplete inhibition of HBV replication. The inventors hypothesized that the novel RNaseH inhibitors would work synergistically with the existing nucleos(t)ide analogs because the two classes of drugs target physically distinct active sites on the viral polymerase protein. […] RNAseH inhibitors from two different chemical classes were employed, compound #1 [2-hydroxyisoquinoline-1,3(2H,4H)-dione], an HID, and #46 (β-thujaplicinol), an α-hydroxytropolone, were tested. Chou-Talaly analysis yields a combination index (CI). CI values<1.0 indicate synergy, CIs of approximately 1.0 indicate additive interactions, and CI values>1.0 indicate antagonism. CI values are calculated at various efficacy levels (EC50, EC75, EC90, and EC95), and a weighted CI value favoring higher efficacy levels is also generated. FIGS. 6A & 6B show the results of four experiments employing compound #1 and three with compound #46. […] Therefore, RNAseH inhibitors act strongly synergistically with an approved nucleos(t)ide analog drug against HBV.

[6] = tested on: patient-derived RNAseH enzymes (genotypes B, C and D); test: Biochemical RNAseH assay with patient-derived variant enzymes; parameters: species or system Hepatitis B virus
Source text: Four variant patient-derived RNAseH enzymes were expressed as recombinant enzymes, purified, and tested in an RNAseH assay with compounds #1 (FIG. 7A) and #46 (FIG. 7B) at their respective IC50s.
HBV has at least 8 genotypes differing in sequence by 8%. Genetic diversity in the RNAseH domain is about 6%, which is easily high enough to modulate viral sensitivity to RNAseH inhibitors. Therefore, the inventors tested the RNAseH inhibitors #1 [2-hydroxyisoquinoline-1,3(2H,4H)-dione], an HID, and #46 (β-thujaplicinol), an α-hydroxytropolone, for the ability to inhibit variant RNAseHs. Twelve purified, patient-derived RNAseH enzymes (4 from each genotypes B, C and D) were tested with the compounds at their respective IC50 values in a biochemical RNAseH assay. […] Therefore, HBV's high genetic variation is unlikely to present a substantial barrier to drug development.

Row | SMILES | anti-HSV SAR group, in words (HSV) | EC50 (HBV) [nM] | Non-P450 turn-over [1] | half-life at 1 μM ([1]; read-out: t ½) [min] | ER [1] | CLint scaled at 1 μM ([1]; mouse, liver microsomes) [mL/min/kg] | predicted hepatic clearance at 1 μM ([1]; mouse, liver microsomes, read-out: CL ′hep) [mL/min/kg] | Vero cell toxicity Qualitative (Vero cells) | log reduction at 5 µM (HSV-2 [2]) | log reduction at 50 µM (HSV-2 [2]) | log reduction at 5 µM (HSV-1 [3]) | log reduction at 50 µM (HSV-1 [3]) | CL ′hep [1] [mL/min/kg] | CL′int [1] [mL/min/kg] | t ½ [1] [min] | suppression of HSV-1 replication in cell culture, in words (HSV-1 [4]) | suppression of HSV-2 replication in cell culture, in words (HSV-2 [5]) | weighted CI value (combination index) with Lamivudine (HBV replication) | inhibition of four genotype D RNAseH enzymes ([6]; compound at its IC50, FIGS. 7A & 7B) | inhibition of all 12 variant RNAseH enzymes, in words ([6]; compound at its IC50, genotypes B, C and D)
1 | CC(=O)c1cc(O)c(=O)c(O)cc1C [Compound 110] | weakest inhibitors | 340 | No | > 120 | 0.22 | 26 | 20 | t? | -0.65 | 4.24 | -0.47 | 5.11 |  |  |  |  |  |  |  | 
2 | CCOC(=O)c1c(C)cc(O)c(=O)c(O)c1C [Compound 117] | weakest inhibitors |  |  |  |  |  |  | t? | -0.16 | 4.97 | 0.76 | 4.66 |  |  |  |  |  |  |  | 
3 | CC(C)c1ccc(O)c(=O)c(O)c1 [Compound 46, β-thujaplicinol, reference compound] |  |  | No |  | 0.78 |  |  |  |  |  |  |  | 70 | 318 | 16 | strongly suppress | strongly suppress | 0.44±0.3 | about 50% | Equivalent results
